Assay results from patent US20220409727A1, “Metal Complexes Bearing Bisstyryl-Bipyridine Ligand and Their Use as Photosensitizer Agent in One and Two-Photon Photodynamic Therapy” (Paris Sciences et Lettres, priority 2019, published 2022).
Read-outs that look alike come from different tables or passages of the source.

How the values were obtained:
[1] = system: human glioblastoma astrocytoma (U373) cells; assay: (Photo-)cytotoxicity on 2D cell monolayers, resazurin assay, U373; conditions: for PI (480 nm): U373, dark vs 480 nm (10 min, 3.1 J/cm^2); for PI (540 nm): U373, dark vs 540 nm (40 min, 9.5 J/cm^2); for IC50: compounds 1-3 as chloride salts
Protocol: (§1) The human glioblastoma astrocytoma (U373) cell line was cultured in MEM medium supplemented with 10% FBS, 1% NEAA (non-essential amino-acids) and 1% penicillin/streptomycin. […] The human retinal epithelial cells (RPE-1, non-cancerous cells immortalized with hTERT) were cultured in DMEM-F12 medium supplemented with 10% FBS and 1% penicillin/streptomycin. All cell lines were obtained from the American Type Culture Collection (ATCC) and cultured at 37° C. and 5% CO2. Before an experiment, the cells were passaged three times.
(§2) The cytotoxicity of the compounds was assessed by measuring cell viability using a fluorometric resazurin assay. The cultivated cells were seeded in triplicates in 96 well plates with a density of 4000 cells per well in 100 μL of media. After 24 h, the medium was removed and the cells were treated with increasing concentrations of the compound diluted in cell media achieving a total volume of 200 μL. The cells were incubated with the compound for 4 h. After this time, the media was removed and replaced with 200 μL of fresh medium. For the phototoxicity studies, the cells were exposed to light with an Atlas Photonics LUMOS BIO irradiator. Each well was constantly illuminated with either a 480 nm or 540 nm irradiation. During this time, the temperature was maintained constantly at 37° C. The cells were grown in the incubator for additional 44 h. For the determination of the dark cytotoxicity, the cells were not irradiated and after the medium exchange directly incubated for 44 h. After this time, the medium was replaced with fresh medium containing resazurin with a final concentration of 0.2 mg/mL. After 4 h incubation, the amount of the fluorescent product resorufin was determined upon excitation at 540 nm and measurement its emission at 590 nm using a SpectraMax M2 Microplate Reader (Molecular Devices).
(§3) The obtained data was analyzed with the GraphPad Prism software.

[2] = system: human cervical carcinoma (HeLa) cells; assay: (Photo-)cytotoxicity on 2D cell monolayers, resazurin assay, HeLa; type: cell-based; conditions: for PI (480 nm): dark vs 480 nm (10 min, 3.1 J/cm^2); for PI (540 nm): dark vs 540 nm (40 min, 9.5 J/cm^2)
Text: Before an experiment, the cells were passaged three times.

[3] = Emission measurement in CH3CN; type: physicochemical; conditions: room temperature, excitation at 355 nm
[4] = system: mouse colon carcinoma (CT-26) cells; assay: (Photo-)cytotoxicity on 2D cell monolayers, resazurin assay, CT-26; conditions: for PI (480 nm): CT-26, dark vs 480 nm (10 min, 3.1 J/cm^2); for PI (540 nm): CT-26, dark vs 540 nm (40 min, 9.5 J/cm^2); for IC50: compounds 1-3 as chloride salts
Protocol: as §1, §2, §3

[5] = system: non-cancerous retinal pigment epithelium (RPE-1) cells; assay: (Photo-)cytotoxicity on 2D cell monolayers, resazurin assay, RPE-1; conditions: for PI (480 nm): RPE-1, dark vs 480 nm (10 min, 3.1 J/cm^2); for PI (540 nm): RPE-1, dark vs 540 nm (40 min, 9.5 J/cm^2);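 as to all read-outs here: cells exposed to compound 4 h, medium exchanged, then irradiated or kept dark, 44 h further growth, viability by resorufin fluorescence (ex 540 nm, em 590 nm)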
[6] = Luminescence quantum yield measurements; type: physicochemical; parameters: key: fraction, relative to [Ru(bipy)3]Cl2 reference in CH3CN (Φem=5.9%); conditions: CH3CN, room temperature, excitation at 355 nm
In short: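 Samples in CH3CN at absorbance 0.1 at 355 nm, excited at 355 nm by an Nd-YAG-pumped OPO with emission collected at right angle onto a monochromator and CCD. Quantum yield calculated relative to [Ru(bipy)3]Cl2 in CH3CN (Φem=5.9%), correcting for absorbed light fraction, integrated emission and refractive index.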

[7] = system: mouse colon carcinoma (CT-26) cells
Protocol: as §1, §2, §3

HeLa MCTS = assay: 3D multicellular tumor spheroids (MCTS) growth inhibition assay; type: cell-based, human; conditions: 20 μM, 1P (500 nm, 10 J/cm^2) or 2P (800 nm, 10 J/cm^2) irradiation on day 3
Protocol: autoclave. The hot emulsion was transferred into wells (50 μL per well) of a 96 cell culture well plate. The plates were exposed for 3 h to UV irradiation to ensure the sterility and allow the agarose solution to cool down. After this time, the agarose was overlayed with a HeLa cell suspension at a density of 3000 cells per well in 150 μL of media. The MCTS were cultivated and maintained at 37° C. in a cell culture incubator at 37° C. with 5% CO2 atmosphere. The culture media was replaced every two days. Within two-three days MCTs were formed from the cell suspension. The formation as well as integrity, diameter and volume of the MCTs was monitored by an Axio Observer Z1 (Carl Zeiss) phase contrast microscope. The volume was calculated using the following formula: V=4/3πr^3. The luminescence images along the z-axis were captured by a one-(λex=458 nm, λem=600-750 nm) or two-photon (λex=800 nm, λem=600-750 nm) excitation in the z-stack mode with a an LSM 880 (Carl Zeiss) laser scanning confocal microscope equipped with Argon and a Coherent Chameleon 2-Photon laser and a GaAsP detector.
MCTS were treated with the corresponding compounds (20 μM 1-7, 20 μM tetraphenylporphyrin H2TPP, 10 μM cisplatin, 30 μM cisplatin, 2% DMSO, v %) by replacing 50% of the media with drug supplemented media in the dark for three days. After this time, the MCTS were exposed to a two-photon irradiation (800 nm, 10 J/cm^2) with a section interval of 5 μm using a LSM 880 (Carl Zeiss) laser scanning confocal microscope equipped with a Coherent Chameleon 2-Photon laser. The cell culture media was replaced every two days. The integrity and diameter of the MCTs was monitored with an Axio Observer Z1 (Carl Zeiss) phase contrast microscope every 24 h.

[8] = read-out: IC50 480 nm (10 min, 3.1 J/cm^2), U373, irradiation 480 nm (10 min, 3.1 J/cm^2)
[9] = read-out: IC50 dark, U373, dark, 4 h incubation
[10] = dark, 4 h incubation, compounds 1-3 as chloride salts, read-out: IC50 dark
[11] = read-out: IC50 480 nm (10 min, 3.1 J/cm^2), irradiation 480 nm (10 min, 3.1 J/cm^2), compounds 1-3 as chloride salts
[12] = read-out: IC50 540 nm (40 min, 9.5 J/cm^2), irradiation 540 nm (40 min, 9.5 J/cm^2), compounds 1-3 as chloride salts
[13] = read-out: IC50 540 nm (40 min, 9.5 J/cm^2), CT-26, irradiation 540 nm (40 min, 9.5 J/cm^2)
[14] = read-out: IC50 dark, CT-26, dark, 4 h incubation

| Compound | PI (480 nm) [1] | PI (540 nm) [1] | IC50 [1, 8] | IC50 [1, 9] | PI (480 nm) [2] | PI (540 nm) [2] | IC50 [2, 10] | IC50 [2, 11] | IC50 [2, 12] | λem/nm (Emission maximum) [3] | PI (480 nm) [4] | PI (540 nm) [4] | IC50 [4, 13] | IC50 [4, 14] | PI (480 nm) [5] | PI (540 nm) [5] | ϕem (Luminescence Quantum Yield) [6] | IC50 [7] | volume of the MCTS after light irradiation (HeLa MCTS) |
| --- | --- | --- | --- | --- | --- | --- | --- | --- | --- | --- | --- | --- | --- | --- | --- | --- | --- | --- | --- |
| COc1ccc(C=Cc2ccnc(-c3cc(C=Cc4ccc(OC)cc4)ccn3)c2)cc1.F[P-](F)(F)(F)(F)F.F[P-](F)(F)(F)(F)F.[Ru+2].c1ccc(-c2ccnc3c2ccc2c(-c4ccccc4)ccnc23)cc1.c1ccc(-c2ccnc3c2ccc2c(-c4ccccc4)ccnc23)cc1 [Compound 11, [Ru(4,7-Diphenyl-1,10-phenanthroline)2((E,E′)-4,4′-Bis[p-methoxystyryl]-2,2′-bipyridine)][PF6]2] | 20.6 | 26.4 | 900 ± 200 nM | 18500 ± 1000 nM | 27.5 | 23.6 | 16500 ± 800 nM | 600 ± 300 nM | 700 ± 500 nM | 663 nm | 17.2 | 14.3 | 600 ± 200 nM | 8600 ± 900 nM | 23.1 | 29.7 | 0.027 | 500 ± 200 nM | – |
| [Ru(bipy)2((E,E′)-4,4′-Bis[p-(N,N-methoxy)styryl]-2,2′-bipyridine)][PF6]2 [Compound 7] | >9.5 | >7.4 | 10500 ± 1700 nM | > 100000 nM | >83.3 | >66.7 | > 100000 nM | 1200 ± 400 nM | 1500 ± 500 nM | 664 nm | >142.9 | >111.1 | 900 ± 300 nM | > 100000 nM | >32.3 | >11.9 | 0.028 | 700 ± 400 nM | strongest phototoxic effect |
